Test results from article PMC4404319 (ACS Chemical Neuroscience, 2015).
Entries after “also recorded” stand apart in the source; their conditions may differ.

Tests used:
166 GPCRs = assay: Functional GPCR agonist and antagonist screen, whole panel; type: cell-based; settings: agonist 12 500 nM, antagonist 10 000 nM
Chemical stability = type: physicochemical; settings: pH 1–13, 24 h, 37 °C
C57BL/6 mice = assay: Modified SHIRPA adverse pharmacology screen; type: in vivo; settings: 50 and 150 mg/kg, 24 h observation
in vivo = settings: male, Sprague-Dawley, rat, 5 mg/kg
in vitro = settings: rat, liver microsomes, pH 7.4
P-gp = assay: in vitro; settings: human, Caco-2
BCRP = assay: in vitro; settings: dog
[1] = test system: Salmonella typhimurium TA98 and TA100; assay: Ames bacterial reverse mutation assay; settings: ± metabolic activation, up to 5 μg/plate
MAO-A = target: T1, MAO-A (Homo sapiens, UniProt P21397); assay: Monoamine oxidase inhibition; settings: 0.01–25 μM
T1 sequence (P21397 1-527): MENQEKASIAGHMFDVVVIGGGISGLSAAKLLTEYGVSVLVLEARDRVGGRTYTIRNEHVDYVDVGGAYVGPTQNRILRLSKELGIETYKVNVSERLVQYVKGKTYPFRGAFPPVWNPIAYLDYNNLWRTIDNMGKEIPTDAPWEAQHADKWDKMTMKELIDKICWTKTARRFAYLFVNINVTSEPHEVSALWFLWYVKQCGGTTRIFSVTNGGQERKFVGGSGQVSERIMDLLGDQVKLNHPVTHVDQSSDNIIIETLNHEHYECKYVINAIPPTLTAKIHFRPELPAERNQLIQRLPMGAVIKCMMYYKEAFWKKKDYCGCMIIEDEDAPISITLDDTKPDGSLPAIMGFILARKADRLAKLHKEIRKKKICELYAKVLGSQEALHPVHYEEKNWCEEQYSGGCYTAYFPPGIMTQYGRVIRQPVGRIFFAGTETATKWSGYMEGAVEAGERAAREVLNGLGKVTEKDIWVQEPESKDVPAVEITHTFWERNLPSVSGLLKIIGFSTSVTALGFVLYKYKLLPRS

MAO-B = target: T2, MAO-B (Homo sapiens, UniProt P27338); assay: Monoamine oxidase inhibition; settings: 0.01–25 μM
T2 sequence (P27338 1-520): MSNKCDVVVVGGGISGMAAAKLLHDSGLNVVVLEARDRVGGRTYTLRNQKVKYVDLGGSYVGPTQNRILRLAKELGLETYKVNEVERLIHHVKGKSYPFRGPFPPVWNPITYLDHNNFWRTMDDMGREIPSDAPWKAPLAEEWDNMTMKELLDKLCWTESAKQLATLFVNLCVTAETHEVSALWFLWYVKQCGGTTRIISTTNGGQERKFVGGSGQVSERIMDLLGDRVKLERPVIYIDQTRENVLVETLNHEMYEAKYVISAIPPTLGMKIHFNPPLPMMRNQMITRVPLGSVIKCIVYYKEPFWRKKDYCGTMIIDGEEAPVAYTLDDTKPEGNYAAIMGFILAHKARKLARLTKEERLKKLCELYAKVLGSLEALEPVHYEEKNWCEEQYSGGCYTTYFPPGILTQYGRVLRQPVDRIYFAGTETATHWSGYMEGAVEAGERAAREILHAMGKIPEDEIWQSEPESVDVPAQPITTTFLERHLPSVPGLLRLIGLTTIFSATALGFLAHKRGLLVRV

Caco-2 / P-gp = assay: Caco-2 two-way permeability / P-gp substrate; settings: Caco-2, second of two values given 'respectively'
MDCK / BCRP = assay: BCRP-MDCK two-way permeability / BCRP substrate
[2] = test system: APP/PS1 transgenic (Tg) mouse; assay: Behavior in APP/PS1 transgenic mice, preventative paradigm
[3] = 2.5 mg/kg, oral, daily, 8 weeks to 3–4 months of age

CN1CCN(c2cc(-c3ccncc3)c(-c3ccc4ccccc4c3)nn2)CC1 [MW150, 6-(4-Methylpiperazin-1-yl)-3-(naphthalen-2-yl)-4-(pyridin-4-yl)pyridazine]
functional GPCR off-target activity (166 GPCRs): no agonist or antagonist activity; also recorded: negative
chemical stability (Chemical stability): chemically stable; also recorded: stable at pH (1–13), 24 h, 37 °C
adverse pharmacology, clinical observation (C57BL/6 mice): no differences or adverse events were detected
half-life (in vivo): > 180 min
half-life at 1 μM (in vitro): 43 ± 4 min
microsomal CLint at 1 μM (in vitro): 20 µL/min/mg
Papp A→B at 2 h, 5 μM (P-gp): 33.5 ×10⁻⁶ cm/s
Papp B→A at 2 h, 5 μM (P-gp): 31.2 ×10⁻⁶ cm/s
recovery (P-gp): 71%
Papp A→B at 2 h, 5 μM (BCRP): 20.7 ×10⁻⁶ cm/s
Papp B→A at 2 h, 5 μM (BCRP): 25.1 ×10⁻⁶ cm/s
recovery (BCRP): 66%
AMES test [1]: negative
MAO-A inhibition (MAO-A): negative
MAO-B inhibition (MAO-B): negative
percent recovery, second value (Caco-2 / P-gp): 61%
MDCK permeability classification (MDCK / BCRP): high cell permeability; also recorded: highly permeable
percent recovery, second value (MDCK / BCRP; MDCK, second of two values given 'respectively'): 67%
BCRP substrate status (MDCK / BCRP; effect of 10 μM Ko143 on bidirectional flux): not a substrate; also recorded: not BCRP substrate
RAWM (spatial memory) [2, 3]: improved; also recorded: suppression of the deficits
contextual fear memory (associative memory) [2, 3]: improved; also recorded: suppression of the deficits
dose dependence of behavior end points ([2]; Figure S2): dose dependent
performance of WT mice ([2]; WT littermates, 2.5 mg/kg oral daily): did not affect
sensory threshold ([2]; control behavior): No difference
visible platform task ([2]; control behavior): did not influence; also recorded: No difference
cued fear memory ([2]; control behavior, hippocampus-independent): no effect; also recorded: No difference
open field tests ([2]; control behavior, locomotor activity and anxiety): did not influence; also recorded: No difference
